Data reported in the NIST ThermoML archive (doi:10.1016/j.jct.2012.11.004).
± gives the expanded uncertainty stated by the source.

How the values were obtained:
[1] = 101 kPa, Liquid, Vibrating tube method
[2] = mn = molality of the nth substance listed, in mol/kg; conditions: 101 kPa, Liquid, Vibrating tube method, m2 = 0

Row | SMILES | mass density ([1]; 283.15 K) | mass density ([1]; 293.15 K) | mass density ([1]; 298.15 K) | mass density ([1]; 303.15 K) | mass density ([1]; 313.15 K) | mass density ([1]; 323.15 K) | mass density ([1]; 333.15 K) | mass density ([2]; 283.15 K) | mass density ([2]; 293.15 K) | mass density ([2]; 298.15 K) | mass density ([2]; 303.15 K) | mass density ([2]; 313.15 K) | mass density ([2]; 323.15 K) | mass density ([2]; 333.15 K)
1 | CC(=O)N(C)C [N,N-dimethylethanamide] | 950.04 ± 0.3 kg/m3 | 940.83 ± 0.3 kg/m3 | 936.22 ± 0.3 kg/m3 | 931.61 ± 0.3 kg/m3 | 922.35 ± 0.3 kg/m3 | 913.08 ± 0.3 kg/m3 | 903.76 ± 0.3 kg/m3 |  |  |  |  |  |  | 
2 | CC(=O)N(C)C [N,N-dimethylethanamide] + O=S(=O)([O-])C(F)(F)F.[Na+] |  |  |  |  |  |  |  | 950.04 ± 0.3 kg/m3 | 940.83 ± 0.3 kg/m3 | 936.22 ± 0.3 kg/m3 | 931.61 ± 0.3 kg/m3 | 922.35 ± 0.3 kg/m3 | 913.08 ± 0.3 kg/m3 | 903.76 ± 0.3 kg/m3
3 | CN(C)C=O [dimethylformamide] + O=S(=O)([O-])C(F)(F)F.[Na+] |  |  |  |  |  |  |  | 958.07 ± 0.3 kg/m3 | 948.56 ± 0.3 kg/m3 | 943.79 ± 0.31 kg/m3 | 939.01 ± 0.31 kg/m3 | 929.43 ± 0.31 kg/m3 | 919.81 ± 0.31 kg/m3 | 910.11 ± 0.31 kg/m3
4 | CN(C)C=O [dimethylformamide] | 958.07 ± 0.3 kg/m3 | 948.56 ± 0.3 kg/m3 | 943.79 ± 0.31 kg/m3 | 939.01 ± 0.31 kg/m3 | 929.43 ± 0.31 kg/m3 | 919.81 ± 0.31 kg/m3 | 910.11 ± 0.31 kg/m3 |  |  |  |  |  |  | 
